The test has as its target T1, FAAH (Rattus norvegicus, UniProt P97612).
T1 construct: Preparation of Rat Brain Membranes Preparations (FAAH Enzyme Solution); from tissue; host or cells: rat cerebrum (brain membrane preparation)
T1 sequence (P97612 1-579): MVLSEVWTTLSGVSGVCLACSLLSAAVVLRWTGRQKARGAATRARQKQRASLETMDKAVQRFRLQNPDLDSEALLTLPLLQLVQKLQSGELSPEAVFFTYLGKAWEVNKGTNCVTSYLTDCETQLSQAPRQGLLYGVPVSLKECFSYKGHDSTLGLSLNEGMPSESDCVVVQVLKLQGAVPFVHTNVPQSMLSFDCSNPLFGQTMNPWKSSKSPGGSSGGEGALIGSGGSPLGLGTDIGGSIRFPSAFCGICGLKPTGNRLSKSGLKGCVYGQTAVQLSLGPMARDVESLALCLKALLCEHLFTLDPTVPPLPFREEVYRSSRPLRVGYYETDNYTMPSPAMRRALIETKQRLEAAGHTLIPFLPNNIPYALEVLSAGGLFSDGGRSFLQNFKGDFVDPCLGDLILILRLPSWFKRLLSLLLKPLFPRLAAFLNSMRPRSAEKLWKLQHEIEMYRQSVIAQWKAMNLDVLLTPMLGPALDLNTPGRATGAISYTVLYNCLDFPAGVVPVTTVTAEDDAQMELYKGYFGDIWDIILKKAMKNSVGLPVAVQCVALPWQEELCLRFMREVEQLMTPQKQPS
In words: Determination of FAAH inhibitory activity in rat (rat brain membrane preparations, [3H]-anandamide hydrolysis). Type of test: biochemical. The note with it: rat brain membrane preparations; for inhibition at 0.1 µM: 100 nM test substance, read-out: FAAH Inhibition, Inhibition Rate at 100 nM; for pIC50: test substance 0.1 nM to 1 μM, read-out: FAAH Inhibition IC50. Put shortly:
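Compounds tested from 0.1 nM to 1 μM to derive IC50 against FAAH hydrolysis in rat brain membrane preparations (100 μg/mL). A 10-min 37 °C preincubation was followed by 10 min with [3H]-anandamide (2 nM) mixed with 2 μM unlabelled anandamide. Radioactive ethanolamine was extracted into the water/methanol layer and counted.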

pIC50: −log10 of the molar value.

Inhibition and IC50 data for 50 compounds are collected here from US8735406B2, “8-oxodihydropurine derivative” (Dainippon Sumitomo Pharma Co., Ltd., priority 2009, dated 2014).

Turning to `Cn1c(=O)n(C(=O)N2CCCC2)c2cnc(-c3ccc(F)c(F)c3)nc21` [compound 190], the inhibition (as a rule, the drop in the measured response relative to a control, in per cent) at 0.1 µM worked out at 100% and the negative-log IC50 (pIC50) – broadly, the IC50 on a negative log10 scale, so that one unit is a factor of ten – was 8.22.

In the case of `COc1ccc(-c2ncc3c(n2)n(C)c(=O)n3C(=O)N2CCCC2)cc1F` [compound 191], the inhibition at 0.1 µM was determined as 105% and the pIC50 is 8.15.

In the case of `Cc1ccc(-c2ncc3c(n2)n(C)c(=O)n3C(=O)N2CCCC2)cc1F` [compound 192], the inhibition at 0.1 µM was determined as 103% and the negative logarithm of the IC50 (pIC50) is 7.41.

As for `CCOc1cc(F)cc(-c2ncc3c(n2)n(C)c(=O)n3C(=O)N2CCCC2)c1` [compound 193], the inhibition at 0.1 µM worked out at 102% and the pIC50 was 7.38.

On to `COc1ccc(F)cc1-c1ncc2c(n1)n(C)c(=O)n2C(=O)N1CCCC1` [compound 195], for which the inhibition at 0.1 µM came out at 83% and the pIC50 is 7.18.

For the compound `Cc1cc(C)cc(-c2ncc3c(n2)n(C)c(=O)n3C(=O)N2CCCC2)c1` [compound 197], the inhibition at 0.1 µM turned out to be 69% and the pIC50 is 7.15.

As to `Cn1c(=O)n(C(=O)N2CCCC2)c2cnc(-c3ccc(OC(F)(F)F)c(F)c3)nc21` [compound 198], the inhibition at 0.1 µM is 92% and the pIC50 is 7.34.

`Cn1c(=O)n(C(=O)N2CCCC2)c2cnc(-c3cc(C(F)(F)F)ccc3F)nc21` [compound 199]: the inhibition at 0.1 µM was 68% and the pIC50 was 7.14.

On to `Cn1c(=O)n(C(=O)N2CCCC2)c2cnc(-c3cccc(OC(F)(F)F)c3)nc21` [compound 204], for which the inhibition at 0.1 µM worked out at 81% and the pIC50 was 7.25.

With `COc1cncc(-c2ncc3c(n2)n(C)c(=O)n3C(=O)N2CCCC2)c1` [compound 208], the inhibition at 0.1 µM was determined as 106% and the pIC50 is 8.00.

For `Cn1c(=O)n(C(=O)N2CCCC2)c2cnc(-c3cccnc3F)nc21` [compound 209], the inhibition at 0.1 µM stood at 103% and the negative logarithm of the IC50 (pIC50) is 7.62.

Take `CCOc1ccc(-c2ncc3c(n2)n(C)c(=O)n3C(=O)N2CCCC2)cn1` [compound 210]: the inhibition at 0.1 µM came out at 103% and the pIC50 is 8.10.

With `Cn1c(=O)n(C(=O)N2CCCC2)c2cnc(-c3cncc(F)c3)nc21` [compound 211], the inhibition at 0.1 µM was found to be 101% and the pIC50 was 8.10.

Take `Cc1cncc(-c2ncc3c(n2)n(C)c(=O)n3C(=O)N2CCCC2)c1` [compound 212]: the inhibition at 0.1 µM came out at 88% and the negative-log IC50 (pIC50) is 7.27.

`Cn1c(=O)n(C(=O)N2CCCC2)c2nc(-c3ccccc3F)ncc21` [compound 225]: the inhibition at 0.1 µM was 57% and the pIC50 is 7.05.

Take `COc1ccc(/C=C/c2ncc3c(n2)n(C(=O)N2CCCC2)c(=O)n3C)cc1` [compound 242]: the inhibition at 0.1 µM stood at 40% and the pIC50 is less than 7.00.

On to `Cc1ccc(Cc2ncc3c(n2)n(C)c(=O)n3C(=O)N2CCCC2)cc1` [compound 259], for which the inhibition at 0.1 µM is 95% and the pIC50 was 7.39.

Consider `COc1ccccc1Cc1ncc2c(n1)n(C)c(=O)n2C(=O)N1CCCC1` [compound 260], for which the inhibition at 0.1 µM was 84% and the negative logarithm of the IC50 (pIC50) is 7.24.

With `CCOc1ccc(Cc2ncc3c(n2)n(C)c(=O)n3C(=O)N2CCCC2)cc1` [compound 263], the inhibition at 0.1 µM came out at 75% and the pIC50 was 7.17.

On to `Cn1c(=O)n(C(=O)N2CCCC2)c2cnc(Cc3ccc(C#N)cc3)nc21` [compound 264], for which the inhibition at 0.1 µM worked out at 91% and the negative-log IC50 (pIC50) was 7.27.

As for `Cn1c(=O)n(C(=O)N2CCCC2)c2cnc(Cc3ccc(F)c(F)c3)nc21` [compound 269], the inhibition at 0.1 µM was 96% and the negative logarithm of the IC50 (pIC50) was 7.38.

As to `COc1cc(Cc2ncc3c(n2)n(C)c(=O)n3C(=O)N2CCCC2)cc(OC)c1` [compound 271], the inhibition at 0.1 µM came to 39% and the pIC50 is less than 7.00.

Regarding `Cn1c(=O)n(C(=O)N2CCCC2)c2cnc(Cc3cccc(-c4ccccc4)c3)nc21` [compound 272], the inhibition at 0.1 µM came to 35% and the pIC50 is less than 7.00.

Regarding `CCN(C)C(=O)n1c(=O)n(C)c2nc(Cc3ccc(C(F)(F)F)cc3)ncc21` [compound 283], the inhibition at 0.1 µM is 59% and the negative logarithm of the IC50 (pIC50) was 7.13.

Consider `Cn1c(=O)n(C(=O)N2CCCC2)c2nc(Cc3ccccc3)ncc21` [compound 285], for which the inhibition at 0.1 µM amounted to 66% and the negative-log IC50 (pIC50) was 7.11.

With `COc1ccccc1Cc1ncc2c(n1)n(C(=O)N1CCCC1)c(=O)n2C` [compound 291], the inhibition at 0.1 µM is 58% and the pIC50 was 7.12.

Regarding `CN(C)C(=O)n1c(=O)n(C)c2cnc(-c3ccc(OC(F)(F)F)cc3)nc21` [compound 318], the inhibition at 0.1 µM was 90% and the pIC50 is 7.57.

As for `CN(C)C(=O)n1c(=O)n(C)c2cnc(-c3cccc(OC(F)(F)F)c3)nc21` [compound 319], the inhibition at 0.1 µM was 95% and the pIC50 is 7.74.

As to `CCOc1ccc(-c2ncc3c(n2)n(C(=O)N(C)C)c(=O)n3C)cc1` [compound 320], the inhibition at 0.1 µM turned out to be 45% and the pIC50 was 6.95.

On to `CCOc1cccc(-c2ncc3c(n2)n(C(=O)N(C)C)c(=O)n3C)c1` [compound 321], for which the inhibition at 0.1 µM stood at 54%.

As for `CN(C)C(=O)n1c(=O)n(C)c2cnc(-c3cccc(F)c3)nc21` [compound 323], the inhibition at 0.1 µM came out at 57% and the pIC50 is 7.11.

As for `Cc1cccc(-c2ncc3c(n2)n(C(=O)N(C)C)c(=O)n3C)c1` [compound 324], the inhibition at 0.1 µM was 55% and the pIC50 is 7.09.

Regarding `CN(C)C(=O)n1c(=O)n(C)c2cnc(-c3cccc(C(F)(F)F)c3)nc21` [compound 325], the inhibition at 0.1 µM came out at 101% and the pIC50 was 7.96.

On to `CN(C)C(=O)n1c(=O)n(C)c2cnc(-c3cccc(OCc4ccccc4)c3)nc21` [compound 327], for which the inhibition at 0.1 µM amounted to 23% and the pIC50 is 6.96.

As to `CN(C)C(=O)n1c(=O)n(C)c2cnc(-c3cccc(Cl)c3)nc21` [compound 328], the inhibition at 0.1 µM was determined as 118% and the negative logarithm of the IC50 (pIC50) was 8.30.

`CN(C)C(=O)n1c(=O)n(C)c2cnc(-c3ccc(Cl)cc3)nc21` [compound 329]: the inhibition at 0.1 µM amounted to 95% and the pIC50 is 7.92.

On to `CCN(C)C(=O)n1c(=O)n(C)c2cnc(-c3cccc(C)c3)nc21` [compound 340], for which the inhibition at 0.1 µM was found to be 71% and the pIC50 is 7.30.

Turning to `CCN(C)C(=O)n1c(=O)n(C)c2cnc(-c3cccc(OC(F)(F)F)c3)nc21` [compound 341], the inhibition at 0.1 µM stood at 102% and the pIC50 was greater than 9.00.

Take `CCN(C)C(=O)n1c(=O)n(C)c2cnc(-c3cccc(Cl)c3)nc21` [compound 342]: the inhibition at 0.1 µM came to 76% and the pIC50 is 7.28.

As for `CCN(C)C(=O)n1c(=O)n(C)c2cnc(-c3cccc(OC(F)F)c3)nc21` [compound 343], the inhibition at 0.1 µM is 95% and the pIC50 was 7.85.

As to `CCN(C)C(=O)n1c(=O)n(C)c2cnc(-c3cccc(C(F)F)c3)nc21` [compound 344], the inhibition at 0.1 µM was found to be 93% and the pIC50 is 7.89.

For the compound `CCN(C)C(=O)n1c(=O)n(C)c2cnc(-c3ccc(OC(F)F)cc3)nc21` [compound 345], the inhibition at 0.1 µM came to 101% and the pIC50 is 8.05.

Regarding `CCOc1cccc(-c2ncc3c(n2)n(C(=O)N2CCC2)c(=O)n3C)c1` [compound 346], the inhibition at 0.1 µM was determined as 99% and the pIC50 was 7.68.

For the compound `CCOc1ccc(-c2ncc3c(n2)n(C(=O)N2CCC2)c(=O)n3C)cc1` [compound 347], the inhibition at 0.1 µM was 72% and the pIC50 was 7.21.

As for `CCCCOc1cccc(-c2ncc3c(n2)n(C(=O)N2CCC2)c(=O)n3C)c1` [compound 348], the inhibition at 0.1 µM worked out at 90% and the pIC50 is 7.55.

Turning to `CCCCOc1ccc(-c2ncc3c(n2)n(C(=O)N2CCC2)c(=O)n3C)cc1` [compound 349], the inhibition at 0.1 µM worked out at 103% and the pIC50 is 8.00.

For `Cn1c(=O)n(C(=O)N2CCC2)c2nc(-c3cccc(OC(F)(F)F)c3)ncc21` [compound 350], the inhibition at 0.1 µM came out at 94% and the pIC50 was 8.00.

Regarding `Cn1c(=O)n(C(=O)N2CCC2)c2nc(-c3ccc(OC(F)(F)F)cc3)ncc21` [compound 351], the inhibition at 0.1 µM came to 104% and the pIC50 is 8.00.

As for `Cn1c(=O)n(C(=O)N2CCC2)c2nc(-c3ccccc3)ncc21` [compound 352], the inhibition at 0.1 µM was determined as 42% and the pIC50 is 6.79.

Regarding `Cn1c(=O)n(C(=O)N2CCC2)c2nc(-c3cccc(F)c3)ncc21` [compound 353], the inhibition at 0.1 µM turned out to be 72% and the pIC50 is 7.04.
